Data from patent US20220281848A1, “PYRAZOLE-SUBSTITUTED PYRROLIDINONES AS HERBICIDES” (FMC Corporation, priority 2019, published 2022).

Test system: plants
Experiment: Test D pre-emergence, other plants of Tables D1 and D3
Format: in vivo
Details: pre-emergence, 100=total damage, 0=no damage
Method in brief: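 Damage was rated visually from 0 (none) to 100 (total), at 20 DAA for pre-emergence and 15 d for post-emergence. Plants grew from safener-treated seed in a glasshouse at 24/18° C. or 20/16° C. day/night, 65% humidity, watered twice daily.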

CN1CC(c2cc(C(F)(F)F)n(C)n2)C(C(=O)Nc2cccc(F)c2F)C1=O (racemic) [Compound 3]
damage to plant, ALOMY (rate 15, 20 DAA): 0 | damage to plant, AVEFA (rate 15, 20 DAA): 0 | damage to plant, BEAVA (rate 15, 20 DAA): 0 | damage to plant, BROTE (rate 15, 20 DAA): 0 | damage to plant, BRSNN (rate 15, 20 DAA): 0 | damage to plant, CHEAL (rate 15, 20 DAA): 0 | damage to plant, GALAP (rate 15, 20 DAA): 0 | damage to plant, HORVW (rate 15, 20 DAA): 0 | damage to plant, KCHSC (rate 15, 20 DAA): 0 | damage to plant, LOLPE (rate 15, 20 DAA): 0 | damage to plant, POAAN (rate 15, 20 DAA): 0 | damage to plant, POLCO (rate 15, 20 DAA): 0 | damage to plant, SINAR (rate 15, 20 DAA): 0 | damage to plant, STEME (rate 15, 20 DAA): 0 | damage to plant, VERPE (rate 15, 20 DAA): 0 | damage to plant, ALOMY (rate 30, 20 DAA): 0 | damage to plant, AVEFA (rate 30, 20 DAA): 0 | damage to plant, BEAVA (rate 30, 20 DAA): 0 | damage to plant, BROTE (rate 30, 20 DAA): 0 | damage to plant, BRSNN (rate 30, 20 DAA): 0 | damage to plant, CHEAL (rate 30, 20 DAA): 0 | damage to plant, GALAP (rate 30, 20 DAA): 0 | damage to plant, HORVW (rate 30, 20 DAA): 0 | damage to plant, KCHSC (rate 30, 20 DAA): 0 | damage to plant, LOLPE (rate 30, 20 DAA): 0 | damage to plant, POAAN (rate 30, 20 DAA): 20 | damage to plant, POLCO (rate 30, 20 DAA): 0 | damage to plant, SINAR (rate 30, 20 DAA): 0 | damage to plant, STEME (rate 30, 20 DAA): 0 | damage to plant, VERPE (rate 30, 20 DAA): 0 | damage to plant, ALOMY (rate 60, 20 DAA): 0 | damage to plant, AVEFA (rate 60, 20 DAA): 0 | damage to plant, BEAVA (rate 60, 20 DAA): 0 | damage to plant, BROTE (rate 60, 20 DAA): 0 | damage to plant, BRSNN (rate 60, 20 DAA): 0 | damage to plant, CHEAL (rate 60, 20 DAA): 0 | damage to plant, GALAP (rate 60, 20 DAA): 0 | damage to plant, HORVW (rate 60, 20 DAA): 0 | damage to plant, KCHSC (rate 60, 20 DAA): 0 | damage to plant, LOLPE (rate 60, 20 DAA): 0 | damage to plant, POAAN (rate 60, 20 DAA): 20 | damage to plant, POLCO (rate 60, 20 DAA): 0 | damage to plant, SINAR (rate 60, 20 DAA): 0 | damage to plant, STEME (rate 60, 20 DAA): 0 | damage to plant, VERPE (rate 60, 20 DAA): 0 | damage to plant, ALOMY (rate 130, 20 DAA): 0 | damage to plant, AVEFA (rate 130, 20 DAA): 0 | damage to plant, BEAVA (rate 130, 20 DAA): 0 | damage to plant, BROTE (rate 130, 20 DAA): 0 | damage to plant, BRSNN (rate 130, 20 DAA): 0 | damage to plant, CHEAL (rate 130, 20 DAA): 0 | damage to plant, GALAP (rate 130, 20 DAA): 0 | damage to plant, HORVW (rate 130, 20 DAA): 0 | damage to plant, KCHSC (rate 130, 20 DAA): 0 | damage to plant, LOLPE (rate 130, 20 DAA): 0 | damage to plant, POAAN (rate 130, 20 DAA): 40 | damage to plant, POLCO (rate 130, 20 DAA): 0 | damage to plant, SINAR (rate 130, 20 DAA): 0 | damage to plant, STEME (rate 130, 20 DAA): 0 | damage to plant, VERPE (rate 130, 20 DAA): 0 | damage to plant, ALOMY (rate 250, 20 DAA): 0 | damage to plant, AVEFA (rate 250, 20 DAA): 0 | damage to plant, BEAVA (rate 250, 20 DAA): 0 | damage to plant, BROTE (rate 250, 20 DAA): 0 | damage to plant, BRSNN (rate 250, 20 DAA): 0 | damage to plant, CHEAL (rate 250, 20 DAA): 0 | damage to plant, GALAP (rate 250, 20 DAA): 0 | damage to plant, HORVW (rate 250, 20 DAA): 0 | damage to plant, KCHSC (rate 250, 20 DAA): 0 | damage to plant, LOLPE (rate 250, 20 DAA): 0 | damage to plant, POAAN (rate 250, 20 DAA): 50 | damage to plant, POLCO (rate 250, 20 DAA): 0 | damage to plant, SINAR (rate 250, 20 DAA): 0 | damage to plant, STEME (rate 250, 20 DAA): 0 | damage to plant, VERPE (rate 250, 20 DAA): 0 | damage to plant, ALOMY (rate 500, 20 DAA): 20 | damage to plant, AVEFA (rate 500, 20 DAA): 30 | damage to plant, BEAVA (rate 500, 20 DAA): 0 | damage to plant, BROTE (rate 500, 20 DAA): 0 | damage to plant, BRSNN (rate 500, 20 DAA): 0 | damage to plant, CHEAL (rate 500, 20 DAA): 0 | damage to plant, GALAP (rate 500, 20 DAA): 0 | damage to plant, HORVW (rate 500, 20 DAA): 20 | damage to plant, KCHSC (rate 500, 20 DAA): 0 | damage to plant, LOLPE (rate 500, 20 DAA): 50 | damage to plant, POAAN (rate 500, 20 DAA): 60 | damage to plant, POLCO (rate 500, 20 DAA): 0 | damage to plant, SINAR (rate 500, 20 DAA): 0 | damage to plant, STEME (rate 500, 20 DAA): 30 | damage to plant, VERPE (rate 500, 20 DAA): 60
